In patent US10130601B2, “Use of a composition comprising fish oil and juice for the treatment of inflammation” (Smartfish AS, priority 2013, dated 2018):

Legend:
[1] = ALSFRS-R score (self-reported) in ALS patients; format: in vivo, human
From the text: Patients in the study self-reported the ALSFRS-R score. The Amyotrophic Lateral Sclerosis Functional Rating Scale (ALSFRS-R) is a score from 0-48 which assesses disability in patients with MND. It was developed by Cedarbaum and colleagues (Cedarbaum J M. The ALSFRS-R: a revised ALS functional rating scale that incorporates assessments of respiratory function. BDNF ALS Study Group (Phase III). J Neurol Sci 1999; 169: 13-21). There are twelve questions, some asking about daily activities and how much help a patient needs with them, and some about specific symptoms.
1 for 8 months, no. 2 for 2 months, no. 6 for 4 months, no 7 for 5 months, and no. 11 for 4 months (Table 1). […] 1: 2.6 loss to 0.4 loss, no. 6: from 0.7 loss to 1 point gain, no. 11: from 3.5 loss to 0.5 loss. Said three patients were the patients receiving the composition of the present invention.

[2] = tested on: inflammatory genes in peripheral blood mononuclear cells; experiment: Inflammatory gene transcription in peripheral blood mononuclear cells of ALS patients; format: in vivo, human; conditions: PBMCs
From the text: The aim of this study was to investigate in vivo baseline inflammatory gene transcription in peripheral blood mononuclear cells and the effects of tozilizumab (Actemra®) in 11 ALS patients and also measure the disability before and after the therapy comparing the FRS-R score (Functional Rating Scale). Fiala et al., (to be published). The patients were free to take nutritional supplements. Three patients were taking the composition used in the present invention, transcription results are presented in Example 1 together with the results from the ALSFRS-R score (The Amyotrophic Lateral Sclerosis Functional Rating Scale).
In vivo baseline inflammatory gene transcription in peripheral blood mononuclear cells of 11 ALS patients and the effects of tocilizumab (Actemra®) (cytokine antagonist) infusions were studied tocilizumab inhibits global interleukin-6 (IL6) signaling, a key mechanism in chronic rheumatoid disorder.
At base line one half of the ALS subjects had strong inflammatory activation (Group 1) (8 genes up regulated >4-fold, P<0.05 vs. controls) and the other half (Group 2) had weak activation (Group 2).

Substance: tocilizumab [Actemra]
- FRS-R change After Actemra ([1]; patient #1, spinal ALS, Group 1, before −2.6, treated 8 months, also took the composition): −0.4 points/mo
- FRS-R change After Actemra ([1]; patient #2, spinal ALS, Group 1, before −1.3, treated 2 months): −0.75 points/mo
- FRS-R change After Actemra ([1]; patient #6, spinal ALS, Group 2, before −0.7, treated 4 months, also took the composition): +1.0 points/mo
- FRS-R change After Actemra ([1]; patient #7, spinal ALS, Group 2, before −0.37, treated 5 months): −2.0 points/mo
- FRS-R change After Actemra ([1]; patient #11, spinal ALS, Group unknown, before −3.5, treated 4 months, also took the composition): −0.5 points/mo
- regulation of inflammatory genes after infusions ([2]; ALS patients of Group 1 (strong inflammation)): down regulation
- regulation of inflammatory genes after infusions ([2]; ALS patients of Group 2 (weak inflammation)): up regulation
